Laboratory results: US20160296529A1, “AMINOTRIAZOLOPYRIDINE FOR USE IN THE TREATMENT OF INFLAMMATION, AND PHARMACEUTICAL COMPOSITIONS THEREOF” (priority 2012, published 2016)

Experiments:
[1] = Single dose pharmacokinetics in animals, rat; assay type: in vivo, Sprague-Dawley rats
Experimental: Pharmacokinetic studies were performed in various animal species dosed with the compound according to Formula II to determine the exposure to the compound according to Formula I as well as its apparent terminal half life (T1/2), when possible. […]
Temperature was maintained at approximately 22° C., and food and water were provided ad libitum.
The compound according to […] was formulated in 0.5% methylcellulose and dosed orally to 3 or 6 animals as a single esophageal gavage at dose ranging from 15 to 180 mg/kg under a dosing volume of 5 or 10 mL/kg.
(§1) The compound according to Formula II was formulated in 0.5% methylcellulose and dosed orally to 3 animals (or 3 mouse/time points) as a single esophageal gavage at dose ranging from 15 to 45 mg/kg under a dosing volume of 5 or 10 mL/kg.
(§2) Blood samples were collected over a 24-h period via the jugular vein (dog, minipig), ear blood vessel (rabbit), cardiac puncture (mouse) or retro-orbital sinus (rat) with lithium heparin as anti-coagulant. Whole blood samples were centrifuged and the resulting plasma samples were stored at −20° C. pending analysis.
(§3) Plasma concentrations of the compound according to Formula I and of the compound according to Formula II were determined by an LC-MS/MS method with a limit of quantification ≦10.0 ng/mL for both Formula I and Formula II for all species.
(§4) Pharmacokinetic parameters were calculated using a statistical analysis package (WinNonLin (Pharsight, Sunnyvale, Calif.: CA 94086, USA).

[2] = Single dose pharmacokinetics in human; assay type: in vivo; conditions: for Ratio I/II of exposure (AUC Formula I : AUC Formula II) / AUC: human; for half-life: oral, human plasma, single dose (10-200 mg) of Formula II as capsules, read-out: mean apparent terminal elimination half-life; for AUC: plasma, po, capsules, read-out: exposure (expressed as AUC)
Experimental: Serial blood samples were collected over 72 h to determine plasma concentrations of the compounds according to Formula II and Formula I using a validated liquid chromatography-mass spectrometry/mass spectrometry (LC-MS/MS) method with a limit of quantification of 1.00 ng/mL. PK parameters were assessed using a statistical analysis package (WinNonLin (Pharsight, Sunnyvale, Calif.: CA 94086, USA).
Mean plasma concentration-time profiles of the compound according to Formula II and the compound according to Formula I were measured.
In order to show the comparative exposures of the two compounds, the AUC of the compounds according to Formula I and the compound according to Formula II were calculated. The AUC value represents the total exposure of the compound in the species after dosing. These values were then expressed as a ratio of AUC of the compound according to Formula I: AUC of the compound according to Formula II in FIG. 4. From this ratio it can clearly be seen that there was a significant difference in exposure to a compound according to Formula I after administration of a compound according to Formula II in human compared to the exposure seen in animals for therapeutically equivalent doses. Without wanting to be bound by theory, it was believed that this difference was related to the difference in the apparent terminal half-life in the different species.

[3] = Target inhibition: circulating levels in healthy volunteers as multiples of whole blood assay IC50; assay type: in vivo, human
Experimental: The compound according to Formula II was dosed daily in healthy volunteers at 200 mg QD and 100 mg BID.
The resulting levels of Formula II and Formula I were then measured and plotted (FIG. 5) as multiples of their respective IC50 as determined by the Whole Blood assay described above in Example 3.4.

[4] = Single dose pharmacokinetics in animals, dog; assay type: in vivo, Beagle dogs
Experimental: Pharmacokinetic studies were performed in various animal species dosed with the compound according to Formula II to determine the exposure to the compound according to Formula I as well as its apparent terminal half life (T1/2), when possible.
Sprague-Dawley rats (male, 200-250 g), CD1 mice (male, 25-30 g), Beagle dogs (male, 9-10 kg), Göttingen minipigs (male, 10-15 kg) and New Zealand White rabbits (male, 3-5 kg) were acclimatized for at least 7 days before treatment and were kept on a 12 hr light/dark cycle (07 h00-19 h00).
Temperature was maintained at approximately 22° C., and food and water were provided ad libitum. […]
as §1, §2, §3, §4

[5] = male, Sprague-Dawley, plasma, after Formula II 45 mg/kg oral, read-out: exposure (expressed as AUC)
[6] = after Formula II 10 mg single dose
[7] = after Formula II 25 mg single dose
[8] = after Formula II 50 mg single dose
[9] = after Formula II 100 mg single dose
[10] = after Formula II 200 mg single dose
[11] = Formula II at 100 mg BID, time point 0 h
[12] = Formula II at 100 mg BID, time point 0.5 h
[13] = Formula II at 100 mg BID, time point 1 h
[14] = Formula II at 100 mg BID, time point 2 h
[15] = Formula II at 100 mg BID, time point 3 h
[16] = Formula II at 100 mg BID, time point 5 h
[17] = Formula II at 100 mg BID, time point 8 h
[18] = Formula II at 100 mg BID, time point 12 h
[19] = Formula II at 100 mg BID, time point 12.5 h
[20] = Formula II at 100 mg BID, time point 13 h
[21] = Formula II at 100 mg BID, time point 14 h
[22] = Formula II at 100 mg BID, time point 15 h
[23] = Formula II at 100 mg BID, time point 17 h
[24] = Formula II at 100 mg BID, time point 20 h
[25] = Formula II at 100 mg BID, time point 24 h
[26] = Formula II at 200 mg QD, time point 0 h
[27] = Formula II at 200 mg QD, time point 0.5 h
[28] = Formula II at 200 mg QD, time point 1 h
[29] = Formula II at 200 mg QD, time point 2 h
[30] = Formula II at 200 mg QD, time point 3 h
[31] = Formula II at 200 mg QD, time point 5 h
[32] = Formula II at 200 mg QD, time point 8 h
[33] = Formula II at 200 mg QD, time point 24 h
[34] = male, Beagle, plasma, after Formula II 15 mg/kg oral, read-out: exposure (expressed as AUC)

A half-life ([1]; Sprague-Dawley, plasma, 20 mg/kg, administration of Formula I, oral, read-out: Apparent terminal half life (converted)) of 7 h, an AUC ([1]; Sprague-Dawley, plasma, female, Formula I 20 mg/kg single oral dose, read-out: AUC) of 25200 ng·h/mL and an AUC ([1]; Sprague-Dawley, plasma, female, Formula I 60 mg/kg single oral dose, read-out: AUC) of 123000 ng·h/mL were found for `Nc1nc2cccc(-c3ccc(CN4CCS(=O)(=O)CC4)cc3)n2n1` [Formula I, 5-[4-(1,1-Dioxothiomorpholin-4-ylmethyl)-phenyl]-[1,2,4]triazolo[1,5-a]pyridin-2-ylamine] in this work. It also gave an AUC ([1]; Sprague-Dawley, plasma, female, Formula I 180 mg/kg single oral dose, read-out: AUC) of 541000 ng·h/mL, an AUC ([1]; Sprague-Dawley, plasma, male, Formula I 20 mg/kg single oral dose, read-out: AUC) of 19700 ng·h/mL and an AUC ([1]; Sprague-Dawley, plasma, male, Formula I 60 mg/kg single oral dose, read-out: AUC) of 102000 ng·h/mL. The AUC ([1]; Sprague-Dawley, plasma, male, Formula I 180 mg/kg single oral dose, read-out: AUC) was 376000 ng·h/mL, the “Ratio I/II of exposure (AUC Formula I : AUC Formula II)” value (from here on “Ratio I/II of exposure”) ([1]; after Formula II 45 mg/kg oral) was 0.40 and the AUC [1, 5] was 13300 ng·h/mL. The “apparent terminal half life in human relative to the other animal species” value ([2]; human vs other animal species, in vivo) was “at least 3 fold”, the “Ratio I/II of exposure” value [2, 6] was 22.58 and the “Ratio I/II of exposure” value [2, 7] was 21.81. The “Ratio I/II of exposure” value [2, 8] was 19.86, the “Ratio I/II of exposure” value [2, 9] was 15.92 and the “Ratio I/II of exposure” value [2, 10] was 12.8. For the same molecule, the half-life [2] was 21 to 27 h, the AUC [2, 6] was 2890 ng·h/mL and the AUC [2, 7] was 7220 ng·h/mL. For the same molecule, the AUC [2, 8] was 14600 ng·h/mL, the AUC [2, 9] was 26900 ng·h/mL and the AUC [2, 10] was 57600 ng·h/mL. The “Ratio [blood circulating dose]/[circulating dose at IC50 quantity]” value [3, 11] was 0.97, the “Ratio [blood circulating dose]/[circulating dose at IC50 quantity]” value [3, 12] was 0.93 and the “Ratio [blood circulating dose]/[circulating dose at IC50 quantity]” value [3, 13] was 0.88. The “Ratio [blood circulating dose]/[circulating dose at IC50 quantity]” value [3, 14] was 0.97, the “Ratio [blood circulating dose]/[circulating dose at IC50 quantity]” value [3, 15] was 1.00 and the “Ratio [blood circulating dose]/[circulating dose at IC50 quantity]” value [3, 16] was 1.13. The “Ratio [blood circulating dose]/[circulating dose at IC50 quantity]” value [3, 17] was 0.96, the “Ratio [blood circulating dose]/[circulating dose at IC50 quantity]” value [3, 18] was 0.86 and the “Ratio [blood circulating dose]/[circulating dose at IC50 quantity]” value [3, 19] was 0.93. The “Ratio [blood circulating dose]/[circulating dose at IC50 quantity]” value [3, 20] was 0.88, the “Ratio [blood circulating dose]/[circulating dose at IC50 quantity]” value [3, 21] was 0.97 and the “Ratio [blood circulating dose]/[circulating dose at IC50 quantity]” value [3, 22] was 1.00. The “Ratio [blood circulating dose]/[circulating dose at IC50 quantity]” value [3, 23] was 1.13, the “Ratio [blood circulating dose]/[circulating dose at IC50 quantity]” value [3, 24] was 0.96 and the “Ratio [blood circulating dose]/[circulating dose at IC50 quantity]” value [3, 25] was 0.86. The “Ratio [blood circulating dose]/[circulating dose at IC50 quantity]” value [3, 26] was 0.69, the “Ratio [blood circulating dose]/[circulating dose at IC50 quantity]” value [3, 27] was 0.65 and the “Ratio [blood circulating dose]/[circulating dose at IC50 quantity]” value [3, 28] was 0.69. The “Ratio [blood circulating dose]/[circulating dose at IC50 quantity]” value [3, 29] was 0.84, the “Ratio [blood circulating dose]/[circulating dose at IC50 quantity]” value [3, 30] was 0.96 and the “Ratio [blood circulating dose]/[circulating dose at IC50 quantity]” value [3, 31] was 1.00. For the same molecule, the “Ratio [blood circulating dose]/[circulating dose at IC50 quantity]” value [3, 32] was 0.93, the “Ratio [blood circulating dose]/[circulating dose at IC50 quantity]” value [3, 33] was 0.84 and the half-life ([4]; Beagle, plasma, 10 mg/kg, male, administration of Formula I, oral, read-out: Apparent terminal half life (converted)) was 9 h. The AUC ([4]; Beagle, plasma, male, Formula I 10 mg/kg single oral dose, read-out: AUC) was 49400 ng·h/mL, the AUC ([4]; Beagle, plasma, male, Formula I 25 mg/kg single oral dose, read-out: AUC) was 114000 ng·h/mL and the AUC ([4]; Beagle, plasma, male, Formula I 50 mg/kg single oral dose, read-out: AUC) was 290000 ng·h/mL. The “Ratio I/II of exposure” value ([4]; after Formula II 15 mg/kg oral) was 0.24 and the AUC [4, 34] was 10600 ng·h/mL.
An AUC [1, 5] of 33300 ng·h/mL, a half-life [2] of 5 to 8 h and an AUC [2, 6] of 128 ng·h/mL were found for `O=C(Nc1nc2cccc(-c3ccc(CN4CCS(=O)(=O)CC4)cc3)n2n1)C1CC1` [Formula II, Cyclopropanecarboxylic acid {5-[4-(1,1-dioxo-thiomorpholin-4-ylmethyl)-phenyl]-[1,2,4]triazolo[1,5-a]pyridin-2-yl}-amide] in this work. The AUC [2, 7] was 331 ng·h/mL, the AUC [2, 8] was 735 ng·h/mL and the AUC [2, 9] was 1690 ng·h/mL. The AUC [2, 10] was 4500 ng·h/mL, the “Ratio [blood circulating dose]/[circulating dose at IC50 quantity]” value [3, 11] was 0.09 and the “Ratio [blood circulating dose]/[circulating dose at IC50 quantity]” value [3, 12] was 0.12. For the same molecule, the “Ratio [blood circulating dose]/[circulating dose at IC50 quantity]” value [3, 13] was 0.48, the “Ratio [blood circulating dose]/[circulating dose at IC50 quantity]” value [3, 14] was 1.28 and the “Ratio [blood circulating dose]/[circulating dose at IC50 quantity]” value [3, 15] was 1.71. For the same molecule, the “Ratio [blood circulating dose]/[circulating dose at IC50 quantity]” value [3, 16] was 0.88, the “Ratio [blood circulating dose]/[circulating dose at IC50 quantity]” value [3, 17] was 0.26 and the “Ratio [blood circulating dose]/[circulating dose at IC50 quantity]” value [3, 18] was 0.09. For the same molecule, the “Ratio [blood circulating dose]/[circulating dose at IC50 quantity]” value [3, 19] was 0.12, the “Ratio [blood circulating dose]/[circulating dose at IC50 quantity]” value [3, 20] was 0.48 and the “Ratio [blood circulating dose]/[circulating dose at IC50 quantity]” value [3, 21] was 1.28. For the same molecule, the “Ratio [blood circulating dose]/[circulating dose at IC50 quantity]” value [3, 22] was 1.71, the “Ratio [blood circulating dose]/[circulating dose at IC50 quantity]” value [3, 23] was 0.88 and the “Ratio [blood circulating dose]/[circulating dose at IC50 quantity]” value [3, 24] was 0.26. The “Ratio [blood circulating dose]/[circulating dose at IC50 quantity]” value [3, 25] was 0.09, the “Ratio [blood circulating dose]/[circulating dose at IC50 quantity]” value [3, 26] was 0.02 and the “Ratio [blood circulating dose]/[circulating dose at IC50 quantity]” value [3, 27] was 0.46. The “Ratio [blood circulating dose]/[circulating dose at IC50 quantity]” value [3, 28] was 3.14, the “Ratio [blood circulating dose]/[circulating dose at IC50 quantity]” value [3, 29] was 3.88 and the “Ratio [blood circulating dose]/[circulating dose at IC50 quantity]” value [3, 30] was 3.16. For the same molecule, the “Ratio [blood circulating dose]/[circulating dose at IC50 quantity]” value [3, 31] was 1.31, the “Ratio [blood circulating dose]/[circulating dose at IC50 quantity]” value [3, 32] was 0.36 and the “Ratio [blood circulating dose]/[circulating dose at IC50 quantity]” value [3, 33] was 0.11. The AUC [4, 34] was 44900 ng·h/mL.
